# Source: PMC12735945, “Synthetic Linear Lipopeptides and Lipopeptoids Induce Apoptosis and Oxidative Stress: In Vitro Cytotoxicity and SAR Evaluation Against Cancer Cell Lines” (Pharmaceuticals, 2025)
# Where two headings read alike, the source gives them in different places. Starred links: 1 amine or outer side, 2 acyl side, 3 side chain; linkers in the order of their positions; H or OH if unused. Positions of bridges follow the written chain, without caps; N, C: chain ends. Non-standard residues stand in square brackets, D forms with d. Residues, ends and D or L forms follow the SMILES beside them. *: point of attachment. X1 = CC(C)CCCCCCCCC[C@H](CC(=O)[*:1])O[*:2]; Heptadecanoyl = CCCCCCCCCCCCCCCCC(=O)*; Stearoyl = CCCCCCCCCCCCCCCCCC(=O)*; Myristoyl = CCCCCCCCCCCCCC(=O)*; Boc = CC(C)(C)OC(=O)*; Nlys = NCCCCNCC(=O)O
# How the values were obtained:
# [1] = tested on: PC3 (human prostate cancer) cells; type: cell-based; conditions: 72 h
# Protocol: (§1) The MTT and CV assays were employed for initial cytotoxicity screening and determination of half-maximal inhibitory concentrations (IC50), as described previously. Cells were seeded in 96-well plates and incubated for 24 h prior to treatment. B16F10, HT-29, HeLa, and NIH3T3 cells were seeded at a density of 2000 cells per well, while PC3 cells were seeded at 6000 cells per well due to their slower proliferation rate. For fast screening, cancer cells were treated with two concentrations of each LLP (0.1 µM and 10 µM) for 72 h in triplicate, with four replicates in each experiment. […] Digitonin was used as a positive control in all assays. Following treatment, absorbance was measured using a microplate reader (SpectraMax, Molecular Devices, San Jose, CA, USA) at 540 nm, with a reference wavelength of 670 nm. Cell viability was calculated as a percentage of untreated control wells.
# [2] = tested on: HT-29 (human colon adenocarcinoma) cells; type: cell-based; conditions: 72 h
# Protocol: as §1
# [3] = tested on: HeLa (human cervical adenocarcinoma) cells; type: cell-based; conditions: 72 h
# Protocol: as §1
# [4] = tested on: HT-29 (human colon adenocarcinoma) cells; type: cell-based; conditions: 72 h; remark: listed apart in the source
# Protocol: as §1
# [5] = tested on: B16F10 (mouse skin melanoma) cells; type: cell-based; conditions: 72 h
# Protocol: as §1
# [6] = tested on: PC3 (human prostate cancer) cells; type: cell-based; conditions: 72 h; remark: listed apart in the source
# Protocol: as §1
# [7] = tested on: HeLa (human cervical adenocarcinoma) cells; type: cell-based; conditions: 72 h; remark: listed apart in the source
# Protocol: as §1
# B16F10 cells [8] = assay: CFSE-based cell proliferation assay; parameters: species or system mouse; conditions: B16F10, IC50 concentration, 72 h
# Protocol: B16F10 cells were stained with 1 µM carboxyfluorescein succinimidyl ester (CFSE) for 10 min at 37 °C, followed by treatment with compounds 17, 53, or 57 at IC50 concentrations for 72 h. After incubation, cells were washed, trypsinized, and analyzed by flow cytometry to assess cell division based on CFSE fluorescence intensity.
# caspases in B16F10 cells = assay: ApoStat caspase detection assay; type: cell-based, mouse; conditions: B16F10, IC50 concentration, 72 h
# Protocol: B16F10 cells were seeded in 6-well plates at a density of 1 × 10^5 cells per well and treated for 72 h with IC50 concentrations of selected active LLPs. Post-treatment, cells were harvested and washed with PBS. Cells were then stained with 100 μL of working ApoStat solution, prepared by diluting ApoStat reagent (FITC-VAD-FMK) in PBS containing 5% FCS (99 μL of PBS 5% FCS + 1 μL ApoStat per sample). The staining was performed for 30 min at 37 °C in the dark. Following incubation, cells were washed to remove unbound reagents and analyzed by flow cytometry using a FACSAria III system (BD Biosciences). The fluorescence intensity of FITC was measured to assess caspase production, with increased fluorescence indicating elevated caspase activity.
# B16F10 cells [9] = assay: Cell cycle analysis (DAPI staining, flow cytometry); type: cell-based, mouse; conditions: 72 h
# Protocol: B16F10 cells were seeded overnight in 6-well plates at a density of 1 × 10^5 cells per well and treated for 72 h with selected active LLPs either at the IC50 or 2 × IC50 concentration. Following treatment, both floating and adherent cells were collected, washed with PBS, and fixed in 70% ethanol at 4 °C overnight. Fixed cells were stained with DAPI staining solution (1 µg/mL) for 30 min at 37 °C in the dark, followed by PBS washing to remove excess dye. Flow cytometric analysis was performed using a FACSAria III instrument (BD Biosciences, Eysins, Switzerland). Histograms of cell counts versus fluorescence intensity were generated and cell cycle distribution was determined based on mean fluorescence intensity values.
# B16F10 cells [10] = assay: NO production (DAF-FM staining, flow cytometry); type: cell-based, mouse; conditions: B16F10, IC50 concentration, 72 h
# Protocol: (§2) To assess intracellular ROS/RNS levels, B16F10 cells were first stained with 1 µM DHR for 10 min at 37 °C. Following staining, cells were treated with LLPs 17, 53 or 58 at their IC50 concentrations for 72 h. After treatment, cells were trypsinized, washed with PBS, and analyzed by flow cytometry to quantify DHR fluorescence, indicative of ROS/RNS production. For NO detection, B16F10 cells were treated under identical conditions using the same LLP concentrations. After 72 h, cells were incubated with 5 µM DAF-FM diacetate in RPMI 1640 supplemented with 10% FCS for 1 h at 37 °C. The stain was then deactivated by incubation for 15 min with a serum-free medium. Finally, cells were detached, washed with PBS, and subjected to flow cytometric analysis to assess intracellular NO levels.
# [11] = tested on: B16F10 (mouse skin melanoma) cells; type: cell-based; conditions: 72 h; remark: listed apart in the source
# Protocol: as §1
# B16F10 cells [12] = assay: Apoptosis by Annexin V-FITC/PI staining; type: cell-based, mouse; conditions: B16F10, IC50 concentration, 72 h
# Protocol: B16F10 melanoma cells were seeded in 6-well plates at a density of 1 × 10^5 cells/well and incubated overnight to allow for cell adherence. […] Following treatment, both floating and adherent cells were harvested and washed with PBS. The cells were then resuspended in 100 μL of Annexin V binding buffer containing 5 μL of Annexin V-FITC and 2 μL of PI per sample. Staining was performed for 15 min at 37 °C in the dark. After staining, cells were washed with PBS and analyzed using a BD FACSAria III flow cytometer (BD Biosciences) to quantify the percentages of apoptotic cells.
# B16F10 cells [13] = assay: ROS/RNS production (DHR staining, flow cytometry); type: cell-based, mouse; conditions: B16F10, IC50 concentration, 72 h, versus untreated control
# Protocol: as §2
# [14] = tested on: B16F10 (mouse skin melanoma) cells; conditions: CV assay, 72 h; mean ± SD; cited from earlier work
# Protocol: Table 1 IC50 value (µM) for cytotoxic LLPs (72 h, CV assay). Data represent mean ± SD from three independent biological experiments, each performed with eight technical replicates per concentration. | column: B16F10
# [15] = tested on: HeLa (human cervical adenocarcinoma) cells; conditions: CV assay, 72 h; mean ± SD; cited from earlier work
# Protocol: Table 1 IC50 value (µM) for cytotoxic LLPs (72 h, CV assay). Data represent mean ± SD from three independent biological experiments, each performed with eight technical replicates per concentration. | column: HeLa
# [16] = tested on: NIH3T3 mouse embryonic fibroblasts; type: cell-based; conditions: 72 h
# Protocol: as §1
# [17] = MTT assay, mean ± SD of three independent biological experiments, read-out: IC50 B16F10
# [18] = B16F10, double IC50 concentration
# [19] = MTT assay, mean ± SD of three independent biological experiments, read-out: IC50 HeLa
SMILES,IC50 [2],IC50 [3],IC50 [4],IC50 [7],cell division profile (CFSE) (B16F10 cells [8]),caspase activation (ApoStat fluorescence) (caspases in B16F10 cells),"cells in the sub-G1 phase (B16F10 cells [9]; B16F10, IC50 concentration)",cells in the sub-G1 phase (B16F10 cells [9]; [18]),NO production (B16F10 cells [10]),IC50 [11],proportion of apoptotic cells (B16F10 cells [12]),ROS/RNS production (B16F10 cells [13]),IC50 [5],"IC50 [7, 19]",other results
CCCCCCCCCCCCCCCC(=O)N(CCCCCCNC(=O)OC(C)(C)C)CC(=O)NCC(=O)N(CCCCCCNC(=O)OC(C)(C)C)CC(=O)NCC(=O)OC [Compound 3],6.2 ± 0.2 µM,6.6 ± 0.3 µM,6.5 ± 0.6 µM,6.4 ± 0.9 µM,,,,,,,,,,,"IC50 [1]: 6.1 ± 0.2 µM; IC50 [5, 17]: 6.1 ± 0.1 µM; IC50 [6]: 5.9 ± 0.1 µM"
CCCCCCCCCCCCCC(=O)N(CCNC(=O)OC(C)(C)C)CC(=O)NCC(=O)N(CCNC(=O)OC(C)(C)C)CC(=O)NCC(=O)OC [Compound 17],4.1 ± 0.8 µM,,4 ± 0.6 µM,,notably reduced the proportion of cells undergoing successive divisions,gradual enhancement in the fluorescence signal,approximately 20%,50–60%,increased NO production,5.6 ± 0.4 µM,approximately 15%,moderate ROS/RNS generation,5.7 ± 0.3 µM,5.6 ± 0.3 µM,IC50 [1]: 4.1 ± 0.6 µM; IC50 [6]: 4 ± 0.3 µM
CCCCCCCCCCCCCCCCC(=O)N(CCCCNC(=O)OC(C)(C)C)CC(=O)NCC(=O)N(CCCCNC(=O)OC(C)(C)C)CC(=O)NCC(=O)OC [Compound 45] (Heptadecanoyl-[Nlys](Boc)G[Nlys](Boc)G-OMe),7.8 ± 0.9 µM,7.9 ± 0.6 µM,7.5 ± 0.1 µM,8 ± 0.5 µM,,,,,,,,,,,"IC50 [5, 17]: 8 ± 0.2 µM"
CCCCCCCCCCCCCCCCCC(=O)N(CCCCNC(=O)OC(C)(C)C)CC(=O)NCC(=O)N(CCCCNC(=O)OC(C)(C)C)CC(=O)NCC(=O)OC [Compound 46] (Stearoyl-[Nlys](Boc)G[Nlys](Boc)G-OMe),,8 ± 0.4 µM,,8.2 ± 0.3 µM,,,,,,8 ± 0.9 µM,,,8.1 ± 0.1 µM,,
CCCCCCCCCCCCCC(=O)N(CCCCNC(=O)OC(C)(C)C)CC(=O)NCC(=O)N(CCCCNC(=O)OC(C)(C)C)CC(=O)NCC(=O)OC [Compound 47] (Myristoyl-[Nlys](Boc)G[Nlys](Boc)G-OMe),,,,,,,,,,,,,,12.3 ± 0.8 µM,
CCCCCCCCCCCCCCCC(=O)N(CCc1ccc(O)cc1)CC(=O)NCC(=O)OC [Compound 53],,,,,notably reduced the proportion of cells undergoing successive divisions,gradual enhancement in the fluorescence signal,approximately 20%,50–60%,only a slight increase,7.7 ± 0.3 µM,approximately 15%,only slightly enhanced,8 ± 0.2 µM,,
CCCCCCCCCCCCCCCC(=O)N(CCCCN=[N+]=[N-])CC(=O)NCC(=O)N(CCCCN=[N+]=[N-])CC(=O)NCC(=O)OC [Compound 55],,,,,,,,,,,,,,15.4 ± 0.4 µM,
CCCCCCCCCCCCCCCCCCC(=O)N(CCCCN=[N+]=[N-])CC(=O)NCC(=O)N(CCCCN=[N+]=[N-])CC(=O)NCC(=O)OC [Compound 58],9.1 ± 0.2 µM,7.7 ± 0.2 µM,8.7 ± 0.3 µM,7.8 ± 0.3 µM,notably reduced the proportion of cells undergoing successive divisions,clearer caspase activation was detected,approximately 20%,50–60%,increased NO production,7.4 ± 0.1 µM,approximately 15%,marked increase,7.5 ± 0.2 µM,,
CCCCCCCCCCCCCCCCCCCC(=O)N(CCCCN=[N+]=[N-])CC(=O)NCC(=O)N(CCCCN=[N+]=[N-])CC(=O)NCC(=O)OC [Compound 59],,,,,,,,,,11.1 ± 1.2 µM,,,11.5 ± 1.3 µM,,
"CC(C)CCCCCCCCC[C@@H]1CC(=O)N[C@@H](CCC(=O)O)C(=O)N[C@@H](CC(C)C)C(=O)N[C@H](CC(C)C)C(=O)N[C@@H](C(C)C)C(=O)N[C@@H](CC(=O)O)C(=O)N[C@H](CC(C)C)C(=O)N[C@@H](CC(C)C)C(=O)O1 [Surfactin, surfactin, reference compound] (EL[dL]VD[dL]L; linker N-C via X1 (inferred))",,,,64.9 ± 0.8 µM,,,,,,,,,50.3 ± 0.6 µM,,IC50 [14]: 40.4 ± 0.3 µM; IC50 [15]: 76.2 ± 1.6 µM; NIH3T3 cell viability [16]: approximately 25%
